In US9451775B2, “Heterocyclic compounds as pesticides” (Bayer Intellectual Property GmbH, priority 2008, dated 2016) one finds chromatographic logP and pest or weed control data, which are given here for 50 compounds.

Molecules are shown by their SMILES. Read-outs that look alike come from different tables or passages of the source.

The nature of data set [1]: logP determination by HPLC (formic acid method). In kind it is physicochemical. The following applies: reversed-phase HPLC column (C18), read-out: logP (HCOOH). How it is done: 1) Description of the method for determining the logP values (formic acid method)
The logP values given in the table were determined in accordance with EEC Directive 79/831 Annex V.A8 by HPLC (High Performance Liquid Chromatography) on a reversed-phase column (C18). Temperature: 55° C.
Mobile phases for the determination in the acidic range (pH 3.4):
Mobile phase A: Acetonitrile+1 ml of formic acid/litre. Mobile phase B: water+0.9 ml of formic acid/litre.
Gradient: from 10% mobile phase A/90% mobile phase B to 95% mobile phase A/5% mobile phase B in 4.25 min.
Calibration was carried out using unbranched alkan-2-ones (having 3 to 16 carbon atoms) with known logP values (determination of the logP values by the retention times using linear interpolation between two successive alkanones). The lambda max values were determined in the maxima of the chromatographic signals using the UV spectra from 200 nm to 400 nm.

Data set [2] concerns green peach aphid (Myzus persicae). Description: Myzus test (spray treatment). In kind it is in vivo. The following applies: foliar, read-out: activity (effect in %, aphids killed). How it is done:
Myzus Test (Spray Treatment)
• Solvents: 78.0 parts by weight of acetone • 1.5 parts by weight of dimethylformamide • Emulsifier: 0.5 part by weight of alkylaryl polyglycol ether
To produce a suitable preparation of active compound, 1 part by weight of active compound is mixed with the stated amounts of solvents and emulsifier, and the concentrate is diluted with emulsifier-containing water to the desired concentration.
Discs of leaves of Chinese cabbage (Brassica pekinensis) which are heavily infested by all stages of the green peach aphid (Myzus persicae) are sprayed with an active compound preparation of the desired concentration.
After the desired period of time, the effect in % is determined. 100% means that all aphids have been killed; 0% means that none of the aphids have been killed.

[3] abbreviates: pH 3.4, HPLC on reversed-phase column (C18), acidic range (pH 3.4), 55° C.
Where [4] appears, read: application rate of 500 g/ha, sprayed Chinese cabbage leaf discs.
Setting [5] is: pH 3.4, values printed in the text of the preparation examples, formic acid method.

For `Cc1nc(-c2cccnc2)sc1-c1ccnc(-c2cnccn2)n1` [compound 51], the chromatographic logP in data set [1] (setting [3]) stood at 1.59. The pest or weed control at 500 g/ha in data set [2] (setting [4]) is at least 80%.
For `Cc1nc(-c2cccnc2)sc1-n1ccc(C(F)(F)C(F)(F)F)n1` [Ex. No. 140], in data set [1] (setting [3]), the chromatographic logP was found to be 3.31. In addition, the pest or weed control at 100 g/ha in data set [2] (application rate of 100 g/ha, sprayed Chinese cabbage leaf discs) was at least 80%.
As to `Cc1nc(-c2cccnc2)sc1-c1ccnc(-n2[nH]c(C(F)(F)F)cc2=O)n1` [compound 66], the chromatographic logP in data set [1] (setting [3]) is 2.9. For the same compound, the pest or weed control at 500 g/ha in data set [2] (setting [4]) was at least 80%.
Turning to `Cc1cc(=O)n(-c2nccc(-c3sc(-c4cccnc4)nc3C)n2)[nH]1` [compound 47], in data set [1] (setting [3]), the chromatographic logP turned out to be 1.48. In addition, in data set [2] (setting [4]), the pest or weed control at 500 g/ha is at least 80%.
For `COCC(C)NC(=O)n1ccc(-c2sc(-c3cccnc3)nc2C)n1` (stereo not shown) [compound 113] the same measures were 2.23 and at least 80%.
For `CCC(CC#N)NC(=O)n1ccc(-c2sc(-c3cccnc3)nc2C)n1` (stereo not shown) [compound 131] the same measures were 2.14 and at least 80%.
Taken in the same sequence, the figures for `Cc1nc(-c2cccnc2)sc1-c1cccc(Cl)n1` [compound 31] were 2.66 and at least 80%.
As for `c1cnc(-c2nccc(-c3nnc(-c4cccnc4)s3)n2)nc1` [Preparation Example 9, 4-(5-Pyridin-3-yl-[1,3,4]thiadiazol-2-yl)-[2,2′]bipyrimidinyl], the chromatographic logP in data set [1] (setting [3]) and in data set [1] (setting [5]) was 1.07 throughout. Besides, in data set [2] (in Brassica rapa), the pest or weed control at 500 g/ha is at least 80%.
`c1cnc(-n2ccc(-c3nnc(-c4cccnc4)s3)n2)nc1` [compound 160]: the chromatographic logP in data set [1] (setting [3]) was determined as 1.44. In addition, the pest or weed control at 500 g/ha in data set [2] (setting [4]) is at least 80%.
Taken in the same sequence, the figures for `COC(=O)/C(=N\O)c1nccc(-c2sc(-c3cccnc3)nc2C)n1` [compound 53] were 1.58 and at least 80%.
For `Cc1cc(-c2nccc(-c3sc(-c4cccnc4)nc3C)n2)n(C)n1` [compound 44] the same measures were 2.4 and at least 80%.
Regarding `Cc1nc(-c2cncc(F)c2)sc1-c1cccc(-c2ncccn2)n1` [compound 152], in data set [1] (setting [3]), the chromatographic logP stood at 2.43. Further, the pest or weed control at 500 g/ha in data set [2] (setting [4]) was at least 80%.
Taken in the same sequence, the figures for `CCOCCCNC(=O)n1ccc(-c2sc(-c3cccnc3)nc2C)n1` [compound 123] were 2.46 and at least 80%.
Taken in the same sequence, the figures for `Cc1nc(-c2cccnc2)sc1-c1ccn(-c2nnc(C(F)F)s2)n1` [compound 85] were 2.8 and at least 80%.
As for `Cc1nc(-c2cccnc2)sc1-c1cccnc1` [compound 18], the chromatographic logP in data set [1] (setting [3]) worked out at 1.1. Moreover, the pest or weed control at 500 g/ha in data set [2] (setting [4]) is at least 80%.
On to `Cc1nc(-c2cccnc2)sc1-c1ccn(-c2cnc(C(F)(F)F)nc2)n1` [compound 78], for which the chromatographic logP in data set [1] (setting [3]) was 2.99. Besides, the pest or weed control at 500 g/ha in data set [2] (setting [4]) is at least 80%.
Taken in the same sequence, the figures for `c1cnc(Cn2ccc(-c3cnc(-c4cccnc4)s3)n2)nc1` [compound 147] were 1.24 and at least 80%.
For `Cc1nc(-c2cccnc2)sc1-c1cccc(C2OCCO2)c1` [compound 25] the same measures were 2.39 and at least 80%.
For `Cc1nc(-c2cccnc2)sc1-c1nc(C(F)(F)F)no1` [compound 64] the same measures were 3.34 and at least 80%.
Regarding `Cc1nc(-c2cccnc2)sc1-c1ccn(-c2nnc(C(F)(F)F)n2C)n1` [compound 80], in data set [1] (setting [3]), the chromatographic logP was determined as 2.27. Also, the pest or weed control at 500 g/ha in data set [2] (setting [4]) was at least 80%.
Taken in the same sequence, the figures for `Cc1nc(-c2cccnc2)sc1-c1ccn(C(=O)NCC(F)(F)F)n1` [compound 128] were 2.38 and at least 80%.
Taken in the same sequence, the figures for `C#CC(C)(C)NC(=O)n1ccc(-c2sc(-c3cccnc3)nc2C)n1` [compound 134] were 2.69 and at least 80%.
Taken in the same sequence, the figures for `Cc1nc(-c2cccnc2)sc1-c1ccnc(Cn2cncn2)n1` [compound 69] were 1.2 and at least 80%.
On to `Cc1cc(C)nc(-c2nccc(-c3sc(-c4cccnc4)nc3C)n2)c1` [compound 65], for which the chromatographic logP in data set [1] (setting [3]) was determined as 1.36. In data set [2] (setting [4]), the pest or weed control at 500 g/ha is at least 80%.
As to `CSCCNC(=O)n1ccc(-c2sc(-c3cccnc3)nc2C)n1` [compound 129], in data set [1] (setting [3]), the chromatographic logP was determined as 2.34. The pest or weed control at 500 g/ha in data set [2] (setting [4]) is at least 80%.
Taken in the same sequence, the figures for `Cn1c(C(F)(F)F)nn(-c2cccc(-c3cnc(-c4cccnc4)s3)n2)c1=O` [compound 157] were 2.35 and at least 80%.
As to `Cc1nc(-c2cccnc2)sc1-c1cccc(C2=NOCCO2)n1` [Preparation Example 8, 3-[6-(4-Methyl-2-pyridin-3-ylthiazol-5-yl)pyridin-2-yl]-5,6-dihydro-[1,4,2]dioxazine], the chromatographic logP in data set [1] (setting [3]) stood at 1.82; in data set [1] (setting [5]), 1.81. In data set [2] (in Brassica rapa), the pest or weed control at 500 g/ha was at least 80%.
Regarding `Cn1nc(-c2cccnc2)cc1-c1ccn(Cc2ccccn2)n1` [compound 166], the chromatographic logP in data set [1] (setting [3]) was 0.91. The pest or weed control at 500 g/ha in data set [2] (setting [4]) is at least 80%.
For `Cc1nc(-c2cccnc2)sc1-c1cccc(-c2ccccc2Cl)n1` [compound 42] the same measures were 3.97 and at least 80%.
Regarding `c1cncc(-c2ncc(-c3cccc(-n4ccnn4)n3)s2)c1` [compound 149], in data set [1] (setting [3]), the chromatographic logP was 1.85. Also, the pest or weed control at 500 g/ha in data set [2] (setting [4]) is at least 80%.
With `Cc1nc(-c2cccnc2)sc1-c1ccncn1` [compound 90], the chromatographic logP in data set [1] (setting [3]) amounted to 1.39. In addition, the pest or weed control at 500 g/ha in data set [2] (setting [4]) was at least 80%.
Taken in the same sequence, the figures for `CCCNC(=O)n1ccc(-c2sc(-c3cccnc3)nc2C)n1` [compound 132] were 2.46 and at least 80%.
For `CCOc1cc(OCC)nc(-n2ccc(-c3sc(-c4cccnc4)nc3C)n2)n1` [compound 79], the chromatographic logP in data set [1] (setting [3]) was 3.94. In addition, the pest or weed control at 500 g/ha in data set [2] (setting [4]) was at least 80%.
On to `Cc1nc(-c2cccnc2)sc1-c1ccn(C(=O)NC(C)C)n1` [compound 103], for which the chromatographic logP in data set [1] (setting [3]) was 2.55. Besides, in data set [2] (setting [4]), the pest or weed control at 500 g/ha is at least 80%.
For `Cc1nc(-c2cccnc2)sc1-c1ccn(-c2nnc(C(F)Cl)s2)n1` (stereo not shown) [compound 110], the chromatographic logP in data set [1] (setting [3]) came to 3.24. Besides, the pest or weed control at 500 g/ha in data set [2] (setting [4]) was at least 80%.
For `Cc1nc(-c2cccnc2)sc1-c1ccnc(-c2cccc(Cl)n2)n1` [compound 46] the same measures were 2.47 and at least 80%.
Taken in the same sequence, the figures for `COC(=O)c1nc(-c2sc(-c3cccnc3)nc2C)ccc1Cl` [compound 112] were 2.64 and at least 80%.
Taken in the same sequence, the figures for `Cc1nc(-c2cccnc2)sc1-n1ccc(C(F)(F)F)n1` [Ex. No. 14] were 2.63 and at least 80%.
Take `c1cnc(-n2nccc2-c2nnc(-c3cccnc3)s2)nc1` [compound 161]: the chromatographic logP in data set [1] (setting [3]) was found to be 1.13. Further, in data set [2] (setting [4]), the pest or weed control at 500 g/ha was at least 80%.
On to `Clc1cccc(-c2cnc(-c3cccnc3)s2)n1` [compound 178], for which, in data set [1] (setting [3]), the chromatographic logP worked out at 2.43.
Same read-out and setting: the result for `c1cncc(-c2ncc(-c3cccc(-n4ccnc4)n3)s2)c1` [compound 199] reads 0.93; that for `Cc1nc(-c2cccnc2)sc1-c1csc(-c2cccnc2)n1` [compound 177], 2.19.
Still for that read-out and setting: next, `Cc1cc(C)nc(-c2nc(-c3sc(-c4cccnc4)nc3C)cs2)n1` [compound 197]: 2.58; `COC(OC)c1cccc(-c2cnc(-c3cccnc3)s2)n1` [compound 225]: 2.08.
As for `Cn1nc(-c2cccnc2)cc1-c1cc[nH]n1` [drawing 82], in data set [1] (setting [5]), the chromatographic logP worked out at 0.42.
Still for that read-out and setting: next, `Cc1nc(-c2cccnc2)sc1-c1cccc(Cl)n1` [2-Chloro-6-(4-methyl-2-pyridin-3-ylthiazol-5-yl)pyridine]: 2.66.
`c1cncc(-c2ncc(-c3cccc(C4OCCO4)n3)s2)c1` [compound 205]: in data set [1] (setting [3]), the chromatographic logP is 1.82.
Still for that read-out and setting: next, `c1cncc(-c2ncc(-c3cccc(-n4cccc4)n3)s2)c1` [compound 202]: 3.13; `Cc1cnn(-c2cccc(-c3cnc(-c4cccnc4)s3)n2)c1` [compound 188]: 3.08.
On the same count and under the same terms, next, `Cc1nc(-c2cccnc2)sc1-c1nc(C(=O)N2CCCCC2)cs1` [compound 236]: 2.38.
